In experiment [1] the target is T1, Medicago truncatula NFP ectodomain (NFP-ECD, residues 28-246), wild type, SEQ ID NO: 1 (Medicago truncatula, UniProt Q0GXS4).
T1 construct: The Medicago truncatula NFP ectodomain (residues 28-246); AcMNPV gp67 signal peptide (replaces native signal peptide 1-27) (N); hexa-histidine tag (C); made in house; host or cells: Sf9 cells (Spodoptera frugiperda), baculovirus
The experiment in a line: Microscale thermophoresis (MST) binding of NFP to carbohydrate ligands. The conditions noted are these: read-out: Dissociation constant (Kd). Here is the method: Expression and purification of Medicago NFP ectodomain: The Medicago truncatula NFP ectodomain (residues 28-246) was codon-optimized for insect cell expression (Genscript, Piscataway, USA) and cloned into the pOET4 baculovirus transfer vector (Oxford Expression Technologies). The native NFP signal peptide (residues 1-27, predicted by SignalP 4.1) was replaced with the AcMNPV gp67 signal peptide to facilitate secretion and a hexa-histidine tag was added to the C-terminus. Point mutants of NFP were engineered using site-directed mutagenesis. Recombinant baculoviruses were produced in Sf9 cells (Spodoptera frugiperda) using the FlashBac Gold kit (Oxford Expression technologies) according to the manufacturer's instructions with Lipofectin (ThermoFisher Scientific) as a transfection reagent. Protein expression was performed as follows. Suspension-cultured Sf9 cells were maintained with shaking at 299 K in serum-free MAX-XP (BD-Biosciences, discontinued) or HyClone SFX (GE Healthcare) medium supplemented with 1% Pen-Strep (10000 U/ml, Life technologies) and 1% CD lipid concentrate (Gibco). Protein expression was induced by adding recombinant passage 3 virus once the Sf9 cells reached a cell density of 1.0*10^7^6 cells/ml. After 5-7 days of expression, medium supernatant containing NFP ectodomains was harvested by centrifugation. This was followed by an overnight dialysis step against 50 mM Tris-HCl pH 8, 200 mM NaCl at 277 K. The NFP ectodomain was enriched by two subsequent steps of Ni-IMAC purification (HisTrap excel/HisTrap HP, both GE Healthcare). For crystallography experiments, N-glycans were removed using the endoglycosidase PNGase F (1:15 (w/w), room temperature, overnight). As a final purification step, NFP ectodomain was purified by SEC on a Superdex 200 10/300 or HiLoad Superdex 200 16/600 (both GE Healthcare) in phosphate buffered saline at pH 7.2 supplemented to a total of 500 mM NaCl (for binding assays) or 50 mM Tris-HCl, 200 mM NaCl (for crystallography). NFP ectodomain elutes as a single, homogeneous peak corresponding to a monomer. […]
In general terms: MST reads how a fluorescent partner responds to local heating, with and without ligand.

The target in experiment [2] is T2, Hordeum vulgare RLK10 (HvRLK10; HvLysM-RLK10) ectodomain (residues 25-231), SEQ ID NO: 29 (construct SEQ ID NO: 28) (Hordeum vulgare, UniProt A0A8I6Y103).
T2 construct: full-length natural protein 633 aa beginning […]
The experiment in a line: BLI binding of barley HvRLK10 ectodomain. Details: species or system Hordeum vulgare (barley). The conditions noted are these: FIGS. 13A, 13C-13D. On the technique in general: Biolayer interferometry detects binding as a change in optical thickness at a sensor tip.

For experiment [3], the target named is T1, Medicago truncatula NFP ectodomain (NFP-ECD, residues 28-246), wild type, SEQ ID NO: 1. The experiment is described as follows: Biolayer interferometry (BLI) binding of NFP / NFP-ECD to immobilized LCO and CO ligands. The following applies: further BLI assays, FIGS. 15B-15E, analyte 1.56-100 μM; listed as chitin. Here is the method: (§1) Expression and purification of Medicago NFP ectodomain: The Medicago truncatula NFP ectodomain (residues 28-246) was codon-optimized for insect cell expression (Genscript, Piscataway, USA) and cloned into the pOET4 baculovirus transfer vector (Oxford Expression Technologies). The native NFP signal peptide (residues 1-27, predicted by SignalP 4.1) was replaced with the AcMNPV gp67 signal peptide to facilitate secretion and a hexa-histidine tag was added to the C-terminus. Point mutants of NFP were engineered using site-directed mutagenesis. Recombinant baculoviruses were produced in Sf9 cells (Spodoptera frugiperda) using the FlashBac Gold kit (Oxford Expression technologies) according to the manufacturer's instructions with Lipofectin (ThermoFisher Scientific) as a transfection reagent. Protein expression was performed as follows. Suspension-cultured Sf9 cells were maintained with shaking at 299 K in serum-free MAX-XP (BD-Biosciences, discontinued) or HyClone SFX (GE Healthcare) medium supplemented with 1% Pen-Strep (10000 U/ml, Life technologies) and 1% CD lipid concentrate (Gibco). Protein expression was induced by adding recombinant passage 3 virus once the Sf9 cells reached a cell density of 1.0*10^7^6 cells/ml. After 5-7 days of expression, medium supernatant containing NFP ectodomains was harvested by centrifugation. This was followed by an overnight dialysis step against 50 mM Tris-HCl pH 8, 200 mM NaCl at 277 K. The NFP ectodomain was enriched by two subsequent steps of Ni-IMAC purification (HisTrap excel/HisTrap HP, both GE Healthcare). For crystallography experiments, N-glycans were removed using the endoglycosidase PNGase F (1:15 (w/w), room temperature, overnight). As a final purification step, NFP ectodomain was purified by SEC on a Superdex 200 10/300 or HiLoad Superdex 200 16/600 (both GE Healthcare) in phosphate buffered saline at pH 7.2 supplemented to a total of 500 mM NaCl (for binding assays) or 50 mM Tris-HCl, 200 mM NaCl (for crystallography). NFP ectodomain elutes as a single, homogeneous peak corresponding to a monomer. Point mutated versions of NFP were expressed and purified following the same protocol.
(§2) Biolayer interferometry (BLI): Binding of NFP and mutated versions of NFP to ligands was measured on an Octet RED 96 system (Pall ForteBio). The ligands used were LCO-IV (from S. meliloti), LCO-V (from S. meliloti), LCO-V (from M. loti), and C06 (from M. loti). S. meliloti LCO consists of a tetrameric/pentameric N-acetylglucosamine backbone that is 0-sulfated on the reducing terminal residue, 0-acetylated on the non-reducing terminal residue, and mono-N-acylated by unsaturated C16 acyl groups. M. loti LCO is a pentameric N-acetylglucosamine with a cis-vaccenic acid and a carbamoyl group at the non-reducing terminal residue together with a 2,4-O-acetylfucose at the reducing terminal residue. Biotinylated ligand conjugates were immobilized on streptavidin biosensors (kinetic quality, Pall ForteBio) at a concentration of 125-250 nM for 5 minutes. The binding assays using the S. meliloti ligands (LCO-IV and LCO-V) were replicated seven times, while the binding assays using the M loti ligands (LCO-V and C06) were replicated six times. Data analysis was performed in GraphPad Prism 6 software (GraphPad Software, Inc.). Equilibrium dissociation constants derived from the steady-state were determined by applying a non-linear regression (one site, specific binding) to the response at equilibrium plotted against the protein concentration. Kinetic parameters were determined by non-linear regression (association followed by dissociation) on the subtracted data.
(§3) Mutated lipochitooligosaccharide (LCO) ligands: S. meliloti LCO consists of a tetrameric/pentameric N-acetylglucosamine backbone that is O-sulfated on the reducing terminal residue, O-acetylated on the non-reducing terminal residue, and mono-N-acylated by unsaturated C16 acyl groups. […]

In another experiment the test system is HvRLK10 ectodomain. The experiment in a line: BLI binding of HvRLK10 ectodomain to ligands. The following applies: FIGS. 13A, 13C, 13D. Also on record: species or system H. vulgare.
The target of experiment [4] is T3, Medicago NFP ectodomain (NFP-ECD, WT) (Medicago truncatula, UniProt Q0GXS4).
T3 construct: The Medicago truncatula NFP ectodomain (residues 28-246) was codon-optimized; AcMNPV gp67 signal peptide (replaces native signal peptide 1-27) (N); made in house; host or cells: Sf9 (Spodoptera frugiperda), baculovirus, secreted into medium
T3 sequence (Q0GXS4 28-246): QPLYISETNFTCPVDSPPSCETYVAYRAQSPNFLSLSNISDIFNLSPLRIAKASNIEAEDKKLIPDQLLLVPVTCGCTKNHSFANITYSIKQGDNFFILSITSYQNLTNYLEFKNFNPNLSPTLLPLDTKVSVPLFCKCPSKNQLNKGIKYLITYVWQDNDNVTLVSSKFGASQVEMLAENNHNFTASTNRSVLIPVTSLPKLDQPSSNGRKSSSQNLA
The experiment is described as follows: Biolayer interferometry (BLI) binding of NFP-ECD to immobilized biotinylated ligands. The conditions noted are these: further BLI assays, FIGS. 15B-15E; listed as chitin. The method, then: as §1, §2, §3

In experiment [5] the target is T4, Medicago truncatula NFP ectodomain (NFP-ECD) variant L147D/L154D (parent SEQ ID NO: 1) (Medicago truncatula, UniProt Q0GXS4, L147D/L154D).
T4 construct: The Medicago truncatula NFP ectodomain (residues 28-246); AcMNPV gp67 signal peptide (replaces native signal peptide 1-27) (N); hexa-histidine tag (C); made in house; host or cells: Sf9 cells (Spodoptera frugiperda), baculovirus
The experiment in a line: Biolayer interferometry (BLI) binding of hydrophobic patch mutant NFP L147D/L154D to S. meliloti LCO-IV. The method, then:
as §1
(§4) Creation of NFP point mutations: The NFP leucine residues L147 and L154 were replaced with aspartate residues. Aspartate is similar in size to leucine, but negatively charged where leucine is hydrophobic. Point mutants of NFP were engineered using site-directed mutagenesis. In particular, a double-mutated NFP was engineered where the leucine residues L147 and L154 were replaced with aspartate residues to create the mutant NFP L147D L154D. Point mutated versions of NFP were expressed and purified as described in Example 1.
(§5) NFP mutant binding assays: The binding assay using NFP wild type (WT) protein was replicated seven times, while the binding assay using the NFP mutant NFP L147D L154D was replicated four times.
Biolayer interferometry (BLI): Binding of NFP WT and NFP L147D/L154D mutant to S. meliloti LCO-IV was measured on an Octet RED 96 system (Pall ForteBio). […] Equilibrium dissociation constants derived from the steady-state were determined by applying a non-linear regression (one site, specific binding) to the response at equilibrium plotted against the protein concentration. Kinetic parameters were determined by non-linear regression (association followed by dissociation) on the subtracted data. […]

Experiment [6] concerns the target T5, NFP L147D L154D ectodomain (Medicago truncatula, UniProt Q0GXS4, L147D/L154D).
T5 construct: The Medicago truncatula NFP ectodomain (residues 28-246) was codon-optimized; AcMNPV gp67 signal peptide (replaces native signal peptide 1-27) (N); made in house; host or cells: Sf9 (Spodoptera frugiperda), baculovirus, secreted into medium
The experiment is described as follows: BLI binding of hydrophobic patch mutant NFP-ECD to S. meliloti LCO-IV.
Source text: as §4, §5
Biolayer interferometry (BLI): Binding of NFP WT and NFP L147D/L154D mutant to S. meliloti LCO-IV was measured on an Octet RED 96 system (Pall ForteBio). S. meliloti LCO consists of a tetrameric/pentameric N-acetylglucosamine backbone that is O-sulfated on the reducing terminal residue, 0-acetylated on the non-reducing terminal residue, and mono-N-acylated by unsaturated C16 acyl groups. Biotinylated ligand conjugates were immobilized on streptavidin biosensors (kinetic quality, Pall ForteBio) at a concentration of 125-250 nM for 5 minutes. The binding assays were replicated 7 times for the NFP WT, and 4 times for the NFP L147D/L154D mutant. Data analysis was performed in GraphPad Prism 6 software (GraphPad Software, Inc.). Equilibrium dissociation constants derived from the steady-state were determined by applying a non-linear regression (one site, specific binding) to the response at equilibrium plotted against the protein concentration. Kinetic parameters were determined by non-linear regression (association followed by dissociation) on the subtracted data. Binding ofA. thaliana CERK1 (AtCERK1) to chitopentaose (C05) and chitooctaose (C08) was measured in the same way.

pKd: −log10 of the molar value. “Also recorded” adds a separate entry of the source.

T5 sequence (Q0GXS4 28-246 L147D/L154D): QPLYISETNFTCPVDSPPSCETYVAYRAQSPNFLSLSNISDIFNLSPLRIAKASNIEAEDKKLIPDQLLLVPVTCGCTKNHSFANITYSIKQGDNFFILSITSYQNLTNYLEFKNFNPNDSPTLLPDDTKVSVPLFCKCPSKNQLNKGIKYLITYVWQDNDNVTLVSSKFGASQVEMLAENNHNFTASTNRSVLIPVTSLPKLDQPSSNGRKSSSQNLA
T4 sequence (Q0GXS4 28-246 L147D/L154D): as above
T2 sequence (A0A8I6Y103 25-231): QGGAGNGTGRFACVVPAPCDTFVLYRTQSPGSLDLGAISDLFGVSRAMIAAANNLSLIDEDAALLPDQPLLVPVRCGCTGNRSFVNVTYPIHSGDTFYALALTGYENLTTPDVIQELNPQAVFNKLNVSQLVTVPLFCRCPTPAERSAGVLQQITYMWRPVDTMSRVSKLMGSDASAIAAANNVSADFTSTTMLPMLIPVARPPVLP

As to `CC(=O)N[C@H]1[C@H](O[C@H]2[C@H](O)[C@@H](NC(C)=O)C(O)O[C@@H]2CO)O[C@H](CO)[C@@H](O[C@@H]2O[C@H](CO)[C@@H](O[C@@H]3O[C@H](CO)[C@@H](O)[C@H](O)[C@H]3NC(C)=O)[C@H](O)[C@H]2NC(C)=O)[C@@H]1O` (stereo partly shown) [CO4], the pKd (in general, −log10 of the Kd, conventionally taken in molar units) in experiment [1] is 3.82.

In the case of `CC(=O)N[C@H]1[C@H](O[C@H]2[C@H](O)[C@@H](NC(C)=O)[C@H](O[C@H]3[C@H](O)[C@@H](NC(C)=O)C(O)O[C@@H]3CO)O[C@@H]2CO)O[C@H](CO)[C@@H](O[C@@H]2O[C@H](CO)[C@@H](O[C@@H]3O[C@H](CO)[C@@H](O)[C@H](O)[C@H]3NC(C)=O)[C@H](O)[C@H]2NC(C)=O)[C@@H]1O` (stereo partly shown) [CO5], the “Binding to HvRLK10 ectodomain (in words)” value in experiment [2] is given as “did not bind”. In addition, the “Binding to NFP-ECD (in words)” value in experiment [3] is “did not bind; also recorded: does not bind”. Further, the “HvRLK10 ectodomain binding (BLI)” value in the experiment on HvRLK10 ectodomain is listed as “did not bind”. Besides, the “NFP-ECD binding (BLI)” value in experiment [4] is “did not bind; also recorded: does not bind”. In experiment [1], the pKd was 4.03.

Consider `CCCCCC/C=C\CCCCC/C=C/C(=O)N[C@H]1[C@H](O[C@H]2[C@H](O)[C@@H](NC(C)=O)[C@H](O[C@H]3[C@H](O)[C@@H](NC(C)=O)[C@H](O[C@H]4[C@H](O)[C@@H](NC(C)=O)C(O)O[C@@H]4COS(=O)(=O)O)O[C@@H]3CO)O[C@@H]2CO)O[C@H](COC(C)=O)[C@@H](O)[C@@H]1O` (stereo partly shown) [S. meliloti LCO-IV], for which, in experiment [5] (FIG. 4B), the “Affinity change versus NFP WT (in words)” value is “approximately two times lower affinity”; the “Association (Kon) change versus NFP WT (in words)” value is listed as “almost unaffected”; the “Dissociation (Koff), times faster than NFP WT” value was “approximately 15 times”. In experiment [5] (FIGS. 16A-16C), the “Association rate (kon), fold faster than WT NFP-ECD” value was determined as 4.5 fold and the “Dissociation rate (koff), fold increase compared to WT NFP-ECD” value is on record as 59 fold. Also, in experiment [6] (FIG. 4B), the “affinity compared to NFP WT” value is listed as “approximately two times lower affinity” and the “association (Kon) compared to NFP WT” value is “almost unaffected”. Moreover, in experiment [6] (FIGS. 16A-16C), the “association rate (kon) faster than WT NFP-ECD” value came to 4.5 fold, the “dissociation rate (koff) increase compared to WT NFP-ECD” value is on record as 59 fold and the “lower affinity compared to WT NFP-ECD” value amounted to 13 fold.
